We go through ten compounds from paper PMC4286351 (Journal of undergraduate chemistry research, 2013).

In data set [1] the target is T1, rat P450 2B1 (Rattus norvegicus, UniProt P00176).
T1 sequence (P00176 1-491): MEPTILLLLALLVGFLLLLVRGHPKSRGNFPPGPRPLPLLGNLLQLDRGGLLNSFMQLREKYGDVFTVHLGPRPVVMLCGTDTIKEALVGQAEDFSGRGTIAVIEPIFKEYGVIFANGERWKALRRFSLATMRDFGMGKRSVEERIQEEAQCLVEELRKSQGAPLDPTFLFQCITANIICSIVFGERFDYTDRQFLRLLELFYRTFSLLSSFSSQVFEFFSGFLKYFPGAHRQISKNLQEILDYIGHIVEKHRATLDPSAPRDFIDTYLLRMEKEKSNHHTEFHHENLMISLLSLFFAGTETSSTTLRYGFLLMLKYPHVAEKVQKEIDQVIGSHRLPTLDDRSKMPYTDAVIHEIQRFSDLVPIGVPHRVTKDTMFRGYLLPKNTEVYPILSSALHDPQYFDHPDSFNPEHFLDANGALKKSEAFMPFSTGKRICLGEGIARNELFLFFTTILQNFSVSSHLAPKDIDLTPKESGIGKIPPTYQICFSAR
The data set can be described thus: biochemical. The format is biochemical. To be noted: for inhibition potency for P450 2B1 (in words): rat P450 2B1, PROD activity.

The target in data set [2] is T2, human P450 1A1 (Homo sapiens, UniProt P04798).
T2 sequence (P04798 1-512): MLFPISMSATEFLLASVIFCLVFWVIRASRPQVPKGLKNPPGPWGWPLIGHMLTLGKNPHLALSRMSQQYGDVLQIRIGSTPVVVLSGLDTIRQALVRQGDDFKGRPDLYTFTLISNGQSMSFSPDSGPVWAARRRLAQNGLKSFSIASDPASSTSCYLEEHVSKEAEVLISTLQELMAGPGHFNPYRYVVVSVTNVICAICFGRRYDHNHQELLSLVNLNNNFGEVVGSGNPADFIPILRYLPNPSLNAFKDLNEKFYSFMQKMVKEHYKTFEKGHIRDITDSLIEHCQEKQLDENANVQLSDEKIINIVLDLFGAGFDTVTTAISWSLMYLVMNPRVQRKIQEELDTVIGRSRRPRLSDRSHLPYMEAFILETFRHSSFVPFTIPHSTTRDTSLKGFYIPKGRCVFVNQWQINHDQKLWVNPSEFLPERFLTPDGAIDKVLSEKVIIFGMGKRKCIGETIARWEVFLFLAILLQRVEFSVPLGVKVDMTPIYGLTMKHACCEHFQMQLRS
The data set is described as follows: biochemical.

The target in data set [3] is T3, human P450 1A2 (Homo sapiens, UniProt P05177).
T3 sequence (P05177 1-516): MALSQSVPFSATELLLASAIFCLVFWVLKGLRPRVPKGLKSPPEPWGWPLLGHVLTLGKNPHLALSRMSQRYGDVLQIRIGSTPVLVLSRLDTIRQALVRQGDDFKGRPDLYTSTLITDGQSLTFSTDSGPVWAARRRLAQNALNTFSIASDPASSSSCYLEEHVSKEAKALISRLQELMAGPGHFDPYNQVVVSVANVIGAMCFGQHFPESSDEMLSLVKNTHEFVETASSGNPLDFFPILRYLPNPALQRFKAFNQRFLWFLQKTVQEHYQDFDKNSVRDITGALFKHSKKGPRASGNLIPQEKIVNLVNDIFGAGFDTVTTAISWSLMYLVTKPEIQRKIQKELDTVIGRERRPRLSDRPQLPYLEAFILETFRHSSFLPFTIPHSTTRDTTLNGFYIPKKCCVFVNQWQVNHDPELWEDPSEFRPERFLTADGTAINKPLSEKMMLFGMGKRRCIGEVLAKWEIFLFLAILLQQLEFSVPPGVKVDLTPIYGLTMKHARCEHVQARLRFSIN
The data set can be described thus: 7-methoxyresorufin O-demethylation. The format is biochemical.

Each structure is given as a SMILES string.

What is called IC50 is the concentration at which inhibition is half-maximal. Higher therefore signals lower potency. On to `CCCOc1ccc2c(c1)[nH]c1ccccc12` [VII, 2-propoxy-9H-carbazole], for which the figures for the IC50 in data set [1] and in data set [2] were 10.6 µM and 26.4 µM, respectively.

`Oc1cccc2[nH]c3ccccc3c12` [4-hydroxycarbazole, 4-Hydroxycarbazole, reference compound]: the IC50 in data set [1] is above 100 µM; in data set [3], 7.33 µM; in data set [2], 36.8 µM.

Consider `Oc1ccc2c(c1)[nH]c1ccccc12` [2-hydroxycarbazole, 2-Hydroxycarbazole, reference compound], for which the half-maximal inhibitory concentration (IC50) is 41.6 µM in data set [1], 59.7 µM in data set [3] and 70.5 µM in data set [2].

For `CCOc1ccc2c(c1)[nH]c1ccccc12` [VI, 2-ethoxy-9H-carbazole], the IC50 was 8.43 µM in data set [1] and 15.6 µM in data set [2].

Take `COc1cccc2[nH]c3ccccc3c12` [I, 4-methoxy-9H-carbazole]: the IC50 in data set [1] was 1.83 µM; in data set [2] it was 21.5 µM. The “inhibition potency for P450 2B1 (in words)” value (“inhibition potency” below) in data set [1] is on record as “good inhibition potency”.

For `CCCOc1cccc2[nH]c3ccccc3c12` [III, 4-propoxy-9H-carbazole], the IC50 in data set [1] amounted to 0.659 µM; in data set [2] it was 8.73 µM. Moreover, the “inhibition potency” value in data set [1] is given as “good inhibition potency”.

Consider `CCOc1cccc2[nH]c3ccccc3c12` [II, 4-ethoxy-9H-carbazole], for which, in data set [1], the midpoint of inhibition, the IC50, lay at 1.14 µM and the “inhibition potency” value is recorded as “good inhibition potency”. The 50% inhibitory concentration (IC50) in data set [2] came out at 10.3 µM.

As for `C#CCOc1cccc2[nH]c3ccccc3c12` [IV, 4-(prop-2-yn-1-yloxy)-9H-carbazole], in data set [1], inhibition was half-maximal at 1.78 µM (IC50) and the “inhibition potency” value is given as “good inhibition potency”. This compound also came in with an IC50 in data set [2] of 6.64 µM.

For `COc1ccc2c(c1)[nH]c1ccccc12` [V, 2-methoxy-9H-carbazole], the half-inhibitory concentration (IC50) in data set [1] turned out to be 13.3 µM; in data set [2], 35 µM.

As to `C#CCOc1ccc2c(c1)[nH]c1ccccc12` [VIII, 2-(prop-2-yn-1-yloxy)-9H-carbazole], the IC50 came out at 5.26 µM in data set [1] and 8.65 µM in data set [2].
